System: 362531-283-R-J2-PDC complex spheroid viability
Test: Anticancer human tumor 362531-283-R-J2-PDC patient-derived colon adenocarcinoma cell line growth inhibition [RAS]
Conditions: for viability, T/C: stronger effect = lower value
Method in brief: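 Multi-cell-type spheroids: tumor cells plus HUVEC endothelial cells and mesenchymal stem cells. RAS-pathway inhibitors were combined with targeted agents, each dosed in half-log steps down from clinical Cmax, or from 10 microM when Cmax was unknown.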
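Note: spheroids exposed to the agents for 7 days before readout.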
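Throughout, for viability, T/C: luminescence viability as percent of DMSO vehicle control wells.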

For `CC(=O)OC12COC1CC(O)C1(C)C(=O)C(O)C3=C(C)C(OC(=O)C(O)C(NC(=O)OC(C)(C)C)c4ccccc4)CC(O)(C(OC(=O)c4ccccc4)C21)C3(C)C` (stereo unspecified) + CCn1c(-c2cccnc2C(C)OC)c2c3cc(ccc31)N1CCOC(CC(NC(=O)C(C(C)C)N(C)C(=O)C3(F)CCN(C(=O)C#CC(C)(C)N(C)C)CC3)C(=O)N3CCCC(N3)C(=O)OCC(C)(C)C2)C1, the IC50 (curve of first compound, second compound 0.000949 µM) was 234 nM, the IC50 (curve of first compound, second compound 0.003 µM) was 235 nM and the IC50 (curve of first compound, second compound 0.00949 µM) was 225 nM. The IC50 (curve of first compound, second compound 0.03 µM) was 243 nM, the IC50 (curve of first compound, second compound 0.0949 µM) was 234 nM and the IC50 (curve of first compound, second compound 0.3 µM) was 229 nM. For the same compound, the viability, T/C (second compound 0.000949 µM, first compound 0.0316 µM) was 98.1%, the viability, T/C (second compound 0.000949 µM, first compound 0.1 µM) was 97.4% and the viability, T/C (second compound 0.000949 µM, first compound 0.316 µM) was 33.3%. For the same compound, the viability, T/C (second compound 0.000949 µM, first compound 1 µM) was 19.5%, the viability, T/C (second compound 0.000949 µM, first compound 3.16 µM) was 23.1% and the viability, T/C (second compound 0.000949 µM, first compound 10 µM) was 38.4%. For the same compound, the viability, T/C (second compound 0.003 µM, first compound 0.0316 µM) was 102%, the viability, T/C (second compound 0.003 µM, first compound 0.1 µM) was 94.6% and the viability, T/C (second compound 0.003 µM, first compound 0.316 µM) was 34.7%. The viability, T/C (second compound 0.003 µM, first compound 1 µM) was 16.6%, the viability, T/C (second compound 0.003 µM, first compound 3.16 µM) was 24.5% and the viability, T/C (second compound 0.003 µM, first compound 10 µM) was 38.4%. The viability, T/C (second compound 0.00949 µM, first compound 0.0316 µM) was 101%, the viability, T/C (second compound 0.00949 µM, first compound 0.1 µM) was 95.4% and the viability, T/C (second compound 0.00949 µM, first compound 0.316 µM) was 31.1%. For the same compound, the viability, T/C (second compound 0.00949 µM, first compound 1 µM) was 20%, the viability, T/C (second compound 0.00949 µM, first compound 3.16 µM) was 26% and the viability, T/C (second compound 0.00949 µM, first compound 10 µM) was 36.1%. The viability, T/C (second compound 0.03 µM, first compound 0.0316 µM) was 93%, the viability, T/C (second compound 0.03 µM, first compound 0.1 µM) was 98% and the viability, T/C (second compound 0.03 µM, first compound 0.316 µM) was 36.5%. It also gave a viability, T/C (second compound 0.03 µM, first compound 1 µM) of 17.7%, a viability, T/C (second compound 0.03 µM, first compound 3.16 µM) of 29.2% and a viability, T/C (second compound 0.03 µM, first compound 10 µM) of 34.1%. For the same compound, the viability, T/C (second compound 0.0949 µM, first compound 0.0316 µM) was 95.2%, the viability, T/C (second compound 0.0949 µM, first compound 0.1 µM) was 92.7% and the viability, T/C (second compound 0.0949 µM, first compound 0.316 µM) was 34.8%. It also gave a viability, T/C (second compound 0.0949 µM, first compound 1 µM) of 19%, a viability, T/C (second compound 0.0949 µM, first compound 3.16 µM) of 24.2% and a viability, T/C (second compound 0.0949 µM, first compound 10 µM) of 31.7%. The viability, T/C (second compound 0.3 µM, first compound 0.0316 µM) was 105%, the viability, T/C (second compound 0.3 µM, first compound 0.1 µM) was 96.6% and the viability, T/C (second compound 0.3 µM, first compound 0.316 µM) was 31.9%. For the same compound, the viability, T/C (second compound 0.3 µM, first compound 1 µM) was 18.9%, the viability, T/C (second compound 0.3 µM, first compound 3.16 µM) was 22.5% and the viability, T/C (second compound 0.3 µM, first compound 10 µM) was 28.3%.

`C=CC(=O)Nc1cc(Nc2nccc(-c3cn(C)c4ccccc34)n2)c(OC)cc1N(C)CCN(C)C` was tested, and the viability, T/C (compound 0.00316 µM) was 98.8% [middle of 4 runs], the viability, T/C (compound 0.01 µM) was 92.5% [middle of 4 runs] and the viability, T/C (compound 0.0316 µM) was 101% [middle of 4 runs]. The viability, T/C (compound 0.1 µM) was 101% [middle of 4 runs], the viability, T/C (compound 0.316 µM) was 96.5% [middle of 4 runs] and the viability, T/C (compound 1 µM) was 85.1% [middle of 4 runs]. The IC50 (curve of compound) was > 1000 nM.

`CCc1c2c(nc3ccc(O)cc13)-c1cc3c(c(=O)n1C2)COC(=O)[C@]3(O)CC` was tested, and the viability, T/C (compound 0.000949 µM) was 92.4% [middle of 4 runs], the viability, T/C (compound 0.003 µM) was 93.4% [middle of 4 runs] and the viability, T/C (compound 0.00949 µM) was 74.5% [middle of 4 runs]. The viability, T/C (compound 0.03 µM) was 61.8% [middle of 4 runs], the viability, T/C (compound 0.0949 µM) was 30.2% [middle of 4 runs] and the viability, T/C (compound 0.3 µM) was 19.9% [middle of 4 runs]. The IC50 (curve of compound) was 43.7 nM [middle of 4 runs].
